± gives the expanded uncertainty stated by the source.
Details: 343.15 K, Liquid, Vibrating tube method

CCCCCC(=O)OCC(COC(=O)CCCCC)(COC(=O)CCCCC)COC(=O)CCCCC [pentaerythritol tetrahexanoate]
Details | mass density [kg/m3]
21939 kPa | 973 ± 1.2
21970 kPa | 972.9 ± 1.2
21994 kPa | 973 ± 1.2
22600 kPa | 973.4 ± 1.2
22626 kPa | 973.4 ± 1.2
22658 kPa | 973.4 ± 1.2
22686 kPa | 973.3 ± 1.2
22712 kPa | 973.5 ± 1.2
22744 kPa | 973.6 ± 1.2
22771 kPa | 973.5 ± 1.2
22798 kPa | 973.5 ± 1.2
22831 kPa | 973.5 ± 1.2
22858 kPa | 973.7 ± 1.2
22886 kPa | 973.6 ± 1.2
22919 kPa | 973.6 ± 1.2
22946 kPa | 973.6 ± 1.2
22973 kPa | 973.7 ± 1.2
23356 kPa | 974 ± 1.2
23808 kPa | 974.2 ± 1.2
23832 kPa | 974.2 ± 1.2
23863 kPa | 974.2 ± 1.2
23889 kPa | 974.2 ± 1.2
24332 kPa | 974.5 ± 1.2
24359 kPa | 974.5 ± 1.2
24391 kPa | 974.4 ± 1.2
24418 kPa | 974.6 ± 1.2
24449 kPa | 974.6 ± 1.2
24476 kPa | 974.6 ± 1.2
24504 kPa | 974.6 ± 1.2
24536 kPa | 974.6 ± 1.2
24563 kPa | 974.7 ± 1.2
24590 kPa | 974.6 ± 1.2
24623 kPa | 974.7 ± 1.2
24651 kPa | 974.6 ± 1.2
24678 kPa | 974.6 ± 1.2
24711 kPa | 974.8 ± 1.2
24738 kPa | 974.7 ± 1.2
24766 kPa | 974.8 ± 1.2
24799 kPa | 974.9 ± 1.2
24827 kPa | 974.8 ± 1.2
24855 kPa | 974.9 ± 1.2
24888 kPa | 974.9 ± 1.2
24917 kPa | 975 ± 1.2
24945 kPa | 974.9 ± 1.2
24979 kPa | 974.9 ± 1.2
25008 kPa | 974.9 ± 1.2
25036 kPa | 975 ± 1.2
25070 kPa | 975 ± 1.2
25099 kPa | 975.2 ± 1.2
25128 kPa | 975 ± 1.2
25162 kPa | 975.1 ± 1.2
25191 kPa | 975.2 ± 1.2
25220 kPa | 975.2 ± 1.2
25249 kPa | 975.1 ± 1.2
25284 kPa | 975.1 ± 1.2
25313 kPa | 975.2 ± 1.2
25349 kPa | 975.2 ± 1.2
25379 kPa | 975.3 ± 1.2
25408 kPa | 975.2 ± 1.2
25438 kPa | 975.4 ± 1.2
25473 kPa | 975.3 ± 1.2
25502 kPa | 975.2 ± 1.2
25532 kPa | 975.2 ± 1.2
25562 kPa | 975.2 ± 1.2
25598 kPa | 975.4 ± 1.2
25628 kPa | 975.4 ± 1.2
25657 kPa | 975.4 ± 1.2
25693 kPa | 975.4 ± 1.2
25724 kPa | 975.5 ± 1.2
26078 kPa | 975.6 ± 1.2
26108 kPa | 975.7 ± 1.2
26134 kPa | 975.6 ± 1.2
26161 kPa | 975.8 ± 1.2
26188 kPa | 975.7 ± 1.2
26213 kPa | 975.8 ± 1.2
26245 kPa | 975.8 ± 1.2
26271 kPa | 975.7 ± 1.2
26298 kPa | 975.9 ± 1.2
26330 kPa | 975.7 ± 1.2
26356 kPa | 975.9 ± 1.2
26387 kPa | 976 ± 1.2
26413 kPa | 975.9 ± 1.2
26439 kPa | 976 ± 1.2
26471 kPa | 975.9 ± 1.2
26498 kPa | 975.9 ± 1.2
26524 kPa | 976 ± 1.2
26552 kPa | 975.9 ± 1.2
26585 kPa | 976 ± 1.2
26612 kPa | 976.1 ± 1.2
26644 kPa | 976 ± 1.2
26671 kPa | 976.1 ± 1.2
26873 kPa | 976.3 ± 1.2
26906 kPa | 976.2 ± 1.2
26934 kPa | 976.2 ± 1.2
26962 kPa | 976.3 ± 1.2
26990 kPa | 976.1 ± 1.2
27023 kPa | 976.3 ± 1.2
27051 kPa | 976.1 ± 1.2
27079 kPa | 976.3 ± 1.2
27113 kPa | 976.4 ± 1.2
27141 kPa | 976.3 ± 1.2
27174 kPa | 976.3 ± 1.2
27202 kPa | 976.4 ± 1.2
27230 kPa | 976.3 ± 1.2
27264 kPa | 976.5 ± 1.2
27293 kPa | 976.4 ± 1.2
27322 kPa | 976.5 ± 1.2
27351 kPa | 976.4 ± 1.2
27385 kPa | 976.5 ± 1.2
27414 kPa | 976.6 ± 1.2
27449 kPa | 976.6 ± 1.2
27478 kPa | 976.5 ± 1.2
27508 kPa | 976.5 ± 1.2
27537 kPa | 976.6 ± 1.2
27572 kPa | 976.6 ± 1.2
28317 kPa | 977.1 ± 1.2
28347 kPa | 977.2 ± 1.2
28372 kPa | 977.1 ± 1.2
28396 kPa | 977.2 ± 1.2
28427 kPa | 977.3 ± 1.2
28453 kPa | 977.2 ± 1.2
28479 kPa | 977.2 ± 1.2
28503 kPa | 977.2 ± 1.2
28528 kPa | 977.2 ± 1.2
28558 kPa | 977.3 ± 1.2
28583 kPa | 977.4 ± 1.2
29079 kPa | 977.5 ± 1.2
29105 kPa | 977.6 ± 1.2
29132 kPa | 977.6 ± 1.2
29164 kPa | 977.6 ± 1.2
29190 kPa | 977.6 ± 1.2
29216 kPa | 977.6 ± 1.2
29248 kPa | 977.7 ± 1.2
29274 kPa | 977.7 ± 1.2
29301 kPa | 977.7 ± 1.2
29333 kPa | 977.8 ± 1.2
29446 kPa | 977.9 ± 1.2
29473 kPa | 977.8 ± 1.2
29506 kPa | 977.8 ± 1.2
29763 kPa | 978.1 ± 1.2
29796 kPa | 978.2 ± 1.2
29852 kPa | 978.1 ± 1.2
29886 kPa | 978.2 ± 1.2
29914 kPa | 978.1 ± 1.2

Source: the NIST ThermoML archive (doi:10.1021/je060271a)
